Assay results reported in patent publication US20190249218A1, “Method, Medium and Kit for Detecting Multiple Aminoglycoside Resistance Including 16S rRNA Methylase Mediated Resistance in Gram-Negative Bacteria” (priority 2016, published 2019).

Assays:
Assay in all cases: MIC by broth microdilution
P. aeruginosa = assay type: cell-based, Pseudomonas aeruginosa
Protocol: (§1) MICs of amikacin and gentamicin were determined using the broth microdilution method in cation-adjusted Mueller-Hinton broth, as recommended by the Clinical Laboratory Standard Institute (CLSI) guidelines (8). Amikacin and gentamicin sulfate (Fluorochem, Dertbyshire, UK) were tested over a range of dilutions from 0.25 to 256 μg/ml. A final inoculum of 5.10^5 CFU/ml of each strain was distributed in the 96 wells tray (Sarstedt, Ntimbrecht, Germany). All experiments were repeated in triplicate and E. coli ATCC 25922 was used as quality control. According to the CLSI breakpoints (9), Enterobacteriaceae isolates with gentamicin MICs≤4 and amikacin MICs≤16 mg/L were categorized as susceptible, while those with gentamicin MICs≥16 and amikacin MICs≥64 mg/L were categorized as resistant.
(§2) MICs of amikacin and gentamicin were determined as described above in Example 1.

P. rettgeri = assay type: cell-based, Providencia rettgeri; settings: AAC(2′)
Protocol: as §1, §2

E. coli = assay type: cell-based, Escherichia coli
Protocol: as §1, §2

A. baumannii = assay type: cell-based, Acinetobacter baumannii
Protocol: as §1, §2

K. pneumoniae = assay type: cell-based, Klebsiella pneumoniae
Protocol: as §1, §2

E. cloacae = assay type: cell-based, Enterobacter cloacae
Protocol: as §1, §2

P. stuartii = assay type: cell-based, Providencia stuartii
Protocol: as §1, §2

[1] = isolate 92/31, E. coli, AAC(3)-IV
[2] = isolate 1488, E. coli, AAC(6′)-II
[3] = isolate 4000, E. coli, APH(3′)-I + AAC(3)-V
[4] = isolate FR136, E. coli ATCC 25922, AG susceptible
[5] = isolate R1436, E. coli, AG susceptible
[6] = isolate R1438, E. coli, AG susceptible
[7] = isolate R2278, E. coli ATCC 35218, AG susceptible
[8] = isolate R4100, E. coli TOP10, npmA
[9] = isolate RP4, E. coli, APH(3′)-Ib
[10] = isolate pFCT1163, E. coli, AAC(6′)-Ia
[11] = isolate pFCT4392, E. coli, AAC(3)-Ia
[12] = isolate 1800, K. pneumoniae, AAC(6′)-I + AAC(3)-I
[13] = isolate 13000, K. pneumoniae, APH(3′)-I + AAC(3)-V
[14] = isolate 22233, K. pneumoniae, AAC(3)-V
[15] = isolate N34, K. pneumoniae, rmtC
[16] = isolate R108, K. pneumoniae, armA
[17] = isolate R347, K. pneumoniae, AG susceptible
[18] = isolate R500, K. pneumoniae, armA
[19] = isolate R502, K. pneumoniae, rmtF
[20] = isolate R2160, K. pneumoniae, rmtG
[21] = isolate R2257, K. pneumoniae, armA
[22] = isolate S155, K. pneumoniae, AG susceptible
[23] = isolate 1110, E. cloacae, ANT(2″)
[24] = isolate HM, E. cloacae, AG susceptible
[25] = isolate R713, E. cloacae, AG susceptible
[26] = isolate R1433, E. cloacae, AG susceptible
[27] = isolate R2258, E. cloacae, armA
[28] = isolate BM2667, P. stuartii, APH(3′)-VI + AAC(2′)
[29] = isolate R265, P. stuartii, rmtC

Gentamicin
MIC (P. aeruginosa; strain 3655, P. aeruginosa, APH(3′)-I + ANT(2″)): 4 µg/mL
MIC (P. aeruginosa; strain 3656, P. aeruginosa, APH(3′)-I + ANT(4′)-II): 8 µg/mL
MIC (P. aeruginosa; strain 3658, P. aeruginosa, APH(3′)-I + ANT(4′)-II): 4 µg/mL
MIC (P. aeruginosa; strain 28233, P. aeruginosa, APH(3′)-I + AAC(3)-I): 1 µg/mL
MIC (P. aeruginosa; strain R191, P. aeruginosa, susceptible): 2 µg/mL
Gentamicin Phenotype (P. rettgeri; isolate 531, P. rettgeri): S (gentamicin MICs≤4)
MIC (P. rettgeri; isolate 531, P. rettgeri): 4 µg/mL
MIC (P. rettgeri; strain 531, P. rettgeri): 4 µg/mL
Gentamicin Phenotype (E. coli; isolate 62Carb, E. coli, rmtB): R (gentamicin MICs≥16)
Gentamicin Phenotype (E. coli; [1]): R (gentamicin MICs≥16)
MIC (E. coli; [1]): 16 µg/mL
Gentamicin Phenotype (E. coli; isolate 97, E. coli, AAC(3)-IV): R (gentamicin MICs≥16)
MIC (E. coli; isolate 97, E. coli, AAC(3)-IV): 32 µg/mL
Gentamicin Phenotype (E. coli; isolate 390, E. coli, AAC(3)-IV): R (gentamicin MICs≥16)
MIC (E. coli; isolate 1054 (first entry), E. coli, AAC(6′)-I): 8 µg/mL
MIC (E. coli; isolate 1054 (second entry), E. coli, AAC(6′)-I): 8 µg/mL
Gentamicin Phenotype (E. coli; [2]): R (gentamicin MICs≥16)
MIC (E. coli; [2]): 16 µg/mL
Gentamicin Phenotype (E. coli; [3]): R (gentamicin MICs≥16)
MIC (E. coli; [3]): 64 µg/mL
Gentamicin Phenotype (E. coli; isolate 22089, E. coli, AAC(3)-I + AAC(3)-V): R (gentamicin MICs≥16)
Gentamicin Phenotype (E. coli; isolate 122971, E. coli, ANT(2″)): R (gentamicin MICs≥16)
Gentamicin Phenotype (E. coli; isolate E28, E. coli, rmtB): R (gentamicin MICs≥16)
Gentamicin Phenotype (E. coli; [4]): S (gentamicin MICs≤4)
MIC (E. coli; [4]): 0.5 µg/mL
Gentamicin Phenotype (E. coli; isolate R107, E. coli, rmtB): R (gentamicin MICs≥16)
Gentamicin Phenotype (E. coli; isolate R262, E. coli, rmtC): R (gentamicin MICs≥16)
Gentamicin Phenotype (E. coli; isolate R451, E. coli, rmtC): R (gentamicin MICs≥16)
Gentamicin Phenotype (E. coli; isolate R989, E. coli, armA): R (gentamicin MICs≥16)
Gentamicin Phenotype (E. coli; isolate R990, E. coli, rmtB): R (gentamicin MICs≥16)
Gentamicin Phenotype (E. coli; isolate R1012, E. coli, armA): R (gentamicin MICs≥16)
Gentamicin Phenotype (E. coli; [5]): S (gentamicin MICs≤4)
MIC (E. coli; [5]): 1 µg/mL
Gentamicin Phenotype (E. coli; [6]): S (gentamicin MICs≤4)
MIC (E. coli; [6]): 1 µg/mL
Gentamicin Phenotype (E. coli; [7]): S (gentamicin MICs≤4)
MIC (E. coli; [7]): 1 µg/mL
Gentamicin Phenotype (E. coli; [8]): R (gentamicin MICs≥16)
MIC (E. coli; [8]): 64 µg/mL
Gentamicin Phenotype (E. coli; [9]): S (gentamicin MICs≤4)
MIC (E. coli; [9]): 1 µg/mL
Gentamicin Phenotype (E. coli; [10]): S (gentamicin MICs≤4)
MIC (E. coli; [10]): 4 µg/mL
Gentamicin Phenotype (E. coli; [11]): R (gentamicin MICs≥16)
MIC (E. coli; [11]): 32 µg/mL
Gentamicin Phenotype (E. coli; isolate pWP701, E. coli, AAC(3)-IV): R (gentamicin MICs≥16)
MIC (E. coli; strain 92/31, E. coli, AAC(3)-IV): 16 µg/mL
MIC (E. coli; strain 97, E. coli, AAC(3)-IV): 32 µg/mL
MIC (E. coli; strain 1054a, E. coli, AAC(6′)-I): 8 µg/mL
MIC (E. coli; strain 1054b, E. coli, AAC(6′)-I): 8 µg/mL
MIC (E. coli; strain 1488, E. coli, AAC(6′)-II): 16 µg/mL
MIC (E. coli; strain 4000, E. coli, APH(3′)-I + AAC(3)-V): 64 µg/mL
MIC (E. coli; strain R1436, E. coli, susceptible): 1 µg/mL
MIC (E. coli; strain R1438, E. coli, susceptible): 1 µg/mL
MIC (E. coli; strain R2278, E. coli ATCC 35218, susceptible): 1 µg/mL
MIC (E. coli; strain R2298, E. coli ATCC 25922, susceptible): 1 µg/mL
MIC (E. coli; strain R4100, E. coli, npmA): 258 µg/mL
MIC (E. coli; strain RP4, E. coli, APH(3′)-Ib): 2 µg/mL
MIC (E. coli; strain pFCT1163, E. coli, AAC(6′)-Ia): 4 µg/mL
MIC (E. coli; strain pFCT4392, E. coli, AAC(3)-Ia): 32 µg/mL
MIC (A. baumannii; strain 4996, A. baumannii, AAC(6′)-I): 4 µg/mL
MIC (A. baumannii; strain 8541, A. baumannii, APH(3′)-VI): 0.5 µg/mL
MIC (A. baumannii; strain BM2580, A. baumannii, APH(3′)-VI): 2 µg/mL
MIC (A. baumannii; strain R264, A. baumannii, armA): >256 µg/mL
MIC (A. baumannii; strain R1395, A. baumannii, susceptible): 1 µg/mL
Gentamicin Phenotype (K. pneumoniae; [12]): R (gentamicin MICs≥16)
MIC (K. pneumoniae; [12]): 16 µg/mL
Gentamicin Phenotype (K. pneumoniae; [13]): R (gentamicin MICs≥16)
MIC (K. pneumoniae; [13]): 128 µg/mL
Gentamicin Phenotype (K. pneumoniae; [14]): R (gentamicin MICs≥16)
MIC (K. pneumoniae; [14]): 128 µg/mL
Gentamicin Phenotype (K. pneumoniae; [15]): R (gentamicin MICs≥16)
MIC (K. pneumoniae; [15]): >256 µg/mL
Gentamicin Phenotype (K. pneumoniae; [16]): R (gentamicin MICs≥16)
MIC (K. pneumoniae; [16]): >256 µg/mL
Gentamicin Phenotype (K. pneumoniae; [17]): S (gentamicin MICs≤4)
MIC (K. pneumoniae; [17]): 0.5 µg/mL
Gentamicin Phenotype (K. pneumoniae; [18]): R (gentamicin MICs≥16)
MIC (K. pneumoniae; [18]): >256 µg/mL
Gentamicin Phenotype (K. pneumoniae; [19]): R (gentamicin MICs≥16)
MIC (K. pneumoniae; [19]): >256 µg/mL
Gentamicin Phenotype (K. pneumoniae; [20]): R (gentamicin MICs≥16)
MIC (K. pneumoniae; [20]): >256 µg/mL
Gentamicin Phenotype (K. pneumoniae; [21]): R (gentamicin MICs≥16)
MIC (K. pneumoniae; [21]): >256 µg/mL
Gentamicin Phenotype (K. pneumoniae; [22]): S (gentamicin MICs≤4)
MIC (K. pneumoniae; [22]): 0.5 µg/mL
MIC (K. pneumoniae; strain 1800, K. pneumoniae, AAC(6′)-I + AAC(3)-I): 16 µg/mL
MIC (K. pneumoniae; strain 13000, K. pneumoniae, APH(3′)-I + AAC(3)-V): 128 µg/mL
MIC (K. pneumoniae; strain 22233, K. pneumoniae, AAC(3)-V): 128 µg/mL
MIC (K. pneumoniae; strain N34, K. pneumoniae, rmtC): >256 µg/mL
MIC (K. pneumoniae; strain R108, K. pneumoniae, armA): >256 µg/mL
MIC (K. pneumoniae; strain R347, K. pneumoniae, susceptible): 0.5 µg/mL
MIC (K. pneumoniae; strain R500, K. pneumoniae, armA): >256 µg/mL
MIC (K. pneumoniae; strain R502, K. pneumoniae, rmtF): >256 µg/mL
MIC (K. pneumoniae; strain R2160, K. pneumoniae, rmtG): >256 µg/mL
MIC (K. pneumoniae; strain R2257, K. pneumoniae, armA): >256 µg/mL
MIC (K. pneumoniae; strain S155, K. pneumoniae, susceptible): 0.5 µg/mL
Gentamicin Phenotype (E. cloacae; [23]): R (gentamicin MICs≥16)
MIC (E. cloacae; [23]): 32 µg/mL
Gentamicin Phenotype (E. cloacae; [24]): S (gentamicin MICs≤4)
MIC (E. cloacae; [24]): 2 µg/mL
Gentamicin Phenotype (E. cloacae; [25]): S (gentamicin MICs≤4)
MIC (E. cloacae; [25]): 0.5 µg/mL
Gentamicin Phenotype (E. cloacae; [26]): S (gentamicin MICs≤4)
MIC (E. cloacae; [26]): 2 µg/mL
Gentamicin Phenotype (E. cloacae; [27]): R (gentamicin MICs≥16)
MIC (E. cloacae; [27]): >256 µg/mL
MIC (E. cloacae; strain 1110, E. cloacae, ANT(2″)): 32 µg/mL
MIC (E. cloacae; strain HM, E. cloacae, susceptible): 2 µg/mL
MIC (E. cloacae; strain R713, E. cloacae, susceptible): 0.5 µg/mL
MIC (E. cloacae; strain R1433, E. cloacae, susceptible): 2 µg/mL
MIC (E. cloacae; strain R2258, E. cloacae, armA): >256 µg/mL
Gentamicin Phenotype (P. stuartii; [28]): S (gentamicin MICs≤4)
MIC (P. stuartii; [28]): 8 µg/mL
Gentamicin Phenotype (P. stuartii; isolate R38, P. stuartii, rmtC): R (gentamicin MICs≥16)
MIC (P. stuartii; isolate R38, P. stuartii, rmtC): >256 µg/mL
Gentamicin Phenotype (P. stuartii; [29]): R (gentamicin MICs≥16)
MIC (P. stuartii; [29]): >256 µg/mL
MIC (P. stuartii; strain BM2667, P. stuartii, APH(3′)-VI + AAC(2′)): 16 µg/mL
MIC (P. stuartii; strain R38, P. stuartii, rmtC): >256 µg/mL
MIC (P. stuartii; strain R265, P. stuartii, rmtC): >256 µg/mL
